In brackets after ≈: the same amount, converted by molar mass.

For this data set the following is noted: buffer; pH 7.4; 200.0 µM.
By kinetic solubility is commonly meant solubility judged after dilution from a stock solution rather than from solid. Turning to `CC(C)[C@H](Nc1ccc(C(F)(F)F)cc1[N+](=O)[O-])C(=O)O.[Cl-]`, the solubility (kinetic) is > 51.3 µg/mL.
The value for `CC(=O)c1c(C)[nH]c(C(=O)OCCOc2ccccc2)c1C` was 1.3 µg/mL (≈ 4.31 µM); that for `CCSc1nc(C)nc2sc(C)c(C)c12` was < 0.3 µg/mL; that for `Cc1ccc(C(=O)Nc2ncccc2O)o1` was > 32.7 µg/mL.
The figure for `Cc1nc2ccc(NC(=O)CCC3CCCC3)cc2s1` is 8.9 µg/mL (≈ 30.9 µM); for `COc1cccc(CNCc2ccco2)c1O.O=C(O)C(=O)O` it is > 48.5 µg/mL.
The value for `CC(=O)Oc1ccc(C(=O)NCc2ccco2)cc1` was 37.6 µg/mL (≈ 145 µM); that for `CCOCCCNC(=O)c1c[nH]c2cc(OC)ccc2c1=O` was > 45.7 µg/mL.
`Cc1ccc(C)c(OCC(=O)O/N=C(\N)c2cccc([N+](=O)[O-])c2)c1` registered a solubility (kinetic) of 1.2 µg/mL (≈ 3.5 µM).
In turn, `O=C(O)CCN1C(=O)c2ccc(Oc3ccc([N+](=O)[O-])cc3)cc2C1=O` displayed a solubility (kinetic) of 52.9 µg/mL (≈ 148 µM).
The figure for `COc1ccccc1CNC(=O)c1cc(C(=O)CC(C)C)c[nH]1` is 1.6 µg/mL (≈ 5.09 µM); for `Cc1ccc(OCCNC(=O)CCc2nc3sc4c(c3c(=O)[nH]2)CCCC4)cc1` it is 5.6 µg/mL (≈ 13.6 µM).
The figure for `CCCCNC(=O)C1CCC(CNc2nc(=S)[nH]c3ccccc23)CC1` (stereo unspecified) is 2.6 µg/mL (≈ 6.98 µM); for `Cc1ccccc1/C=C/C12NC(=O)CN1c1ccccc1C2(C)C` (stereo unspecified) it is 1 µg/mL (≈ 3.14 µM); for `COc1ccc(S(=O)(=O)N2CCCCCC2)cc1NC(=O)CN1C(=O)CNC1=O` it is > 63.7 µg/mL.
The figure for `CC(C)NC(=O)CNc1ccc(C(F)(F)F)cc1[N+](=O)[O-]` is 13.4 µg/mL (≈ 43.9 µM); for `COc1ccc(CNc2ncnc3cc(OC)c(OC)cc23)cc1OC` it is > 53.3 µg/mL.
Compound `CN(CCC#N)C(=O)COC(=O)c1ccc2c(c1)C(=O)N(C1CCCCC1)C2=O` displayed a kinetic solubility of 16.1 µg/mL (≈ 40.5 µM).
The figure for `Cl.N=c1ccccn1Cc1ccccc1` is > 33.1 µg/mL; for `O=C(O)c1cccnc1Sc1ccc(Br)cc1` it is > 46.5 µg/mL.
On to `COc1ccc(CC(=O)Nc2nc(C(C)(C)C)cs2)cc1`, for which the solubility (kinetic) was 2.1 µg/mL (≈ 6.9 µM).
`O=C(NCC(c1cccs1)N1CCOCC1)c1cc2ccccc2oc1=O` (stereo unspecified) displayed a solubility (kinetic) of 10 µg/mL (≈ 26 µM).
`O=C1c2ccsc2SCCN1Cc1c(F)cccc1Cl` returned a solubility (kinetic) of 44.4 µg/mL (≈ 135 µM). This solubility kinetic is about 4.4-fold higher than that of the compound before.
The figure for `CC1SC(=S)N(c2ccc(N(C)C)cc2)C1=O` (stereo unspecified) is 5.7 µg/mL (≈ 21.4 µM); for `O=C(NCc1ccncc1)C(=O)NCc1ccncc1` it is > 40.5 µg/mL; for `O=C(NCc1ccco1)C1CC(O)CN1C(=O)Nc1ccccc1` (stereo unspecified) it is > 49.4 µg/mL.
The value for `CCN(Cc1nc(-c2ccccc2)no1)C(=O)c1ccoc1C` was 40.2 µg/mL (≈ 129 µM).
With `O=S(=O)(NCCN1CCOCC1)c1ccc2ccccc2c1`, the solubility (kinetic) is > 48.1 µg/mL.
The figure for `C=CCn1c(N2CCCC2)nc2c1c(=O)n(C)c(=O)n2C` is > 43.4 µg/mL; for `CCOCCn1c(-c2ccccc2)nc2ccccc21` it is 39.5 µg/mL (≈ 148 µM); for `CC(=O)N1CCN(CC(=O)Nc2sccc2C#N)CC1` it is 39 µg/mL (≈ 133 µM).
The value for `CC(C)(C)c1ccc(C(=O)NC(=S)N2CCCCCC2)cc1` was 10.1 µg/mL (≈ 31.7 µM).
Consider `Cc1ccc(C(=O)NCCCNC(=O)Cc2ccccc2)cn1`, for which the kinetic solubility is > 46.7 µg/mL.
`COc1ccc2c(CC(=O)Nc3ccc(OC)nc3)coc2c1`: the solubility (kinetic) turned out to be 14.8 µg/mL (≈ 47.4 µM).
On to `COc1ccc(C(=O)CN2CCN(c3ccc(F)cc3)CC2)cc1`, for which the kinetic solubility was determined as 13 µg/mL (≈ 39.6 µM).
The value for `CCCS(=O)(=O)C/C(N)=N/OC(=O)c1ccccc1Cl` was 38 µg/mL (≈ 119 µM).
The value for `O=C(Nc1cccc(Cl)c1)OC1CCCCc2cccnc21` (stereo unspecified) was 9.3 µg/mL (≈ 29.4 µM); that for `CCOC(=O)CCCCNC(=O)Nc1ccccc1` was > 39.6 µg/mL; that for `Cn1c(N)c(C(=O)COC(=O)Cc2ccccc2)c(=O)n(C)c1=O` was > 49.7 µg/mL.
On to `O=C(NCC1CCCO1)c1cccc(S(=O)(=O)Nc2cccc(C(F)(F)F)c2)c1` (stereo unspecified), for which the solubility (kinetic) is 2.1 µg/mL (≈ 4.9 µM).
Regarding `S=C(Nc1ccc2nccnc2c1)N1CCCC1`, the solubility (kinetic) is > 38.8 µg/mL.
